Entries after “also recorded” stand apart in the source; their conditions may differ. Like-named read-outs stand apart in the source and are kept apart here. Residues, ends and D or L forms follow the SMILES beside them.
How the values were obtained:
[1] = Isoelectric point, log D and log P (SiriusT3); format: physicochemical; details: for IP (isoelectric point): 25±1° C., 0.15 M KCl
[2] = target: IL-17RA/IL17RC dimerization induced by IL-17A (Homo sapiens, UniProt Q16552); test: IL-17RA/IL17RC dimerization assay in response to IL-17A (PathHunter Cytokine Receptor Assay); format: cell-based; details: IL-17A at EC80; read-out: IC50 in IL-17RA/IL7RC dimerization assay
Sequence of IL-17RA/IL17RC dimerization induced by IL-17A (Q16552 24-155): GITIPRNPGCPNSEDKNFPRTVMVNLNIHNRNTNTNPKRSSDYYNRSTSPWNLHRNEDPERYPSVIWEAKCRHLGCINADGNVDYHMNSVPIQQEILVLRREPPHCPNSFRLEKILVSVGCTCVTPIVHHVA
In short: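 PathHunter cells with IL-17RA and IL-17RC tagged for β-galactosidase complementation were preincubated 60 min with peptide (1% vehicle). IL-17A was then added at EC80 for 6–16 h at 37 °C, and chemiluminescence was read. Inhibition is relative to the EC80 and vehicle controls.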

[3] = system: human differentiated TH17 cells; test: Cytokine and metalloproteinase secretion by human differentiated and activated TH17 cells; format: cell-based; details: 24 h after stimulation, supernatant
Source text: To evaluate the effect of the peptides of the invention on the target cells responsible for inflammation in ophtalmic or dermatological pathologies, we tested the ability of the peptide of SEQ ID NO: 18 to inhibit in vitro pro-inflammatory cytokines and metalloproteinases secretion by human Th17 cells.
Human primary CD4 T-cells were differentiated into Th17 cells in vitro by culturing the cells in Th17 differentiation medium for 10 days. In details, purified human peripheral blood CD4 T-cells were cultured in Th-17 differentiation medium (CellXVivo Human Th17, Tocris) per manufacturer's instructions. Briefly: 96-well tissue culture plates were coated with anti-CD3 and CD28 agonistic antibodies. Cells were counted via trypan blue exclusion and suspended at a concentration of 1E5 cells/ml in Th-17 differentiation medium. 0.2 mL of this suspension was plated into individual wells of a 96-well plate. Cells were incubated at 37° C. with 5% CO2 for 10 days, with media replaced as needed. Following 10-day Cell Differentiation, the peptides synthetized in Example 1, such as the peptide of Seq. ID No 18, were diluted to the appropriate concentration in CGM (cell growth medium, XVivo-15, Lonza). Cell plate was centrifuged at 300×g for 5 min, and Th17 differentiation medium was removed.
Following differentiation, the cells were stimulated with both an activation cocktail containing Phorbol 12-myristate 13-acetate and lonomycin in the presence of varying concentrations of test articles.
(§1) At 24 h following stimulation, culture supernatants were analyzed for expression of IL-17, IL-6, IL-23, MMP3 and examined for viability using the fluorescence viability dye, Alamar blue. The CD4 cells secreted high levels of IL-17A in response to stimulation with an activation cocktail, indicating successful differentiation into Th17 cells. Additionally, stimulated cells secreted IL-6, IL23 and MMP3.
Supernatant was removed and replaced with 200 μL of diluted peptide or vehicle (CGM+DMSO diluted as with TI concentration) in appropriate groups. Cells were incubated with peptide test items for 1 hour before stimulation. The following stimulation solutions were generated: 10× Cell Activation Cocktail: Diluted from 500× to 10× working solution in CGM. 22 μL of appropriate stimulants were added to wells 1 hr after TI addition. Finally, 25 μL of Alamar blue reagent (10×) was added to each well 20 hours after stimulant (4 hrs prior to 24 hr serum collection) to determine cell viability. 24 hrs After Stimulant, Alamar blue fluorescence was measured per manufacturer's instructions. […] Expression levels of IL-6, IL-17, and IL-23 as well as MMP3 in 24 hour stimulated culture supernatants was evaluated using a Luminex Multiplex Platform on a MAGPIX instrument.

[4] = format: physicochemical; details: pH 7.8
In short: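 Peptides dissolved in phosphate buffer pH 7.8 as 10 mM stocks (more dilute for less soluble ones) and stored at 25 °C. Content measured by reversed-phase UHPLC (C18, 0.5% formic acid water/acetonitrile gradient, DAD 220-400 nm, ESI-MS ion trap) after 1:100 dilution to 100 μM, against 100 μM standards, at T0, 3 days and 1 week.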

human TH17 cells = test: Viability of human TH17 cells (Alamar blue); format: cell-based
Procedure: as §1
Supernatant was removed and replaced with 200 μL of diluted peptide or vehicle (CGM+DMSO diluted as with TI concentration) in appropriate groups. Cells were incubated with peptide test items for 1 hour before stimulation. The following stimulation solutions were generated: 10× Cell Activation Cocktail: Diluted from 500× to 10× working solution in CGM. 22 μL of appropriate stimulants were added to wells 1 hr after TI addition. Finally, 25 μL of Alamar blue reagent (10×) was added to each well 20 hours after stimulant (4 hrs prior to 24 hr serum collection) to determine cell viability. 24 hrs After Stimulant, Alamar blue fluorescence was measured per manufacturer's instructions. Remaining Supernatants were collected for subsequent multiplex protein analyses. Expression levels of IL-6, IL-17, and IL-23 as well as MMP3 in 24 hour stimulated culture supernatants was evaluated using a Luminex Multiplex Platform on a MAGPIX instrument.

IL-17A = target: T1, IL-17A (Homo sapiens, UniProt Q16552); details: psoriasis, clinical trials; cited from earlier work
T1 construct: host or cells: psoriasis patients (endogenous IL-17A)
T1 sequence (Q16552 24-155): as above

[5] = Permeability test across stratified human corneal epithelial cells; format: in vitro ADME
Procedure: (§2) The objective of this study was to evaluate the apparent permeability coefficient (Papp) value of the peptides across stratified human corneal epithelial cells. All peptides were tested at 50 μM in duplicate.
(§3) In particular, human corneal epithelial cells (hCEPIC) were stratified on Transwell cell culture inserts (Corning, N.Y., USA). The permeation experiments were performed taking samples from receiver chambers at 5, 30, 60 minutes time points and from donor chambers at the same time points. Each aliquot collected was analyzed by HPLC instrument (Knauer) equipped with C18 Vertex Plus Column (Knauer) thermostatically controlled at 40° C. The rate (apparent permeability coefficient, Papp) of the study compounds was calculated and compared to the Papp values of the low and high permeability markers, 6-carboxyfluorescein and Rhodamine B, respectively.
(§4) The apparent permeability coefficient (Papp) was calculated according to Equation: Papp=(I/A*C0)(dM/dt)
(§5) where dM/dt is the flux (nanomoles per second) across the cell layers;
(§6) A (square centimeters) is the exposed surface area of the insert membrane;
(§7) C0 is the initial drug concentration (micromolar) in the donor compartment at t=0 (Xiang et al., Drug Metab Dispos. 2009 May; 37(5):992-8.

[6] = system: human corneal epithelial cells (hCEPIC); test: as above; format: in vitro ADME
Procedure: as §2, §3, §4, §5, §6, §7

mouse IL-17A = target: T2, mouse IL-17A (Mus musculus, UniProt Q62386); test: Peptide-IL-17A affinity test (SPR); format: binding
T2 sequence (Q62386 26-158): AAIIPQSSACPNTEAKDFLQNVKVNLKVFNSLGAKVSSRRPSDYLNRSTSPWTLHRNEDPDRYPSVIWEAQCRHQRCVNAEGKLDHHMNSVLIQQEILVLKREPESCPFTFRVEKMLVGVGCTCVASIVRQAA
Procedure: The peptide of the prior art HAP (SEQ ID NO:1) and peptide of SEQ ID NO:2 were tested for affinity for mIL-17A, as described below. For the immobilization of mouse IL-17A protein, amine coupling chemistry was used. […] Covalent immobilization of mIL17 results in stable attachment of 3000 RU of ligand to the surface. […] The molecules were diluted at different concentrations (from 62.5 to 1000 nM) in HBS-EP buffer and injected on the sensorchip for 4 minutes and allowed to dissociate for 5 minutes. After each run, the sensorchip was regenerated by 2 M NaCl injection. Based on the sensorgrams (FIG. 1, panel A) and using the BIAevaluation software, the Scatchard analysis of the RU values at equilibrium allowed to determine an affinity constant as a function of the analyte concentration in solution (FIG. 6, panel B).

[7] = system: Immortalized Human Corneal Epithelial cell line (I-HCEC); test: In vitro evaluation of expression of inflammatory cytokines in I-HCEC (real-time PCR); format: cell-based; details: 0.01-500 μM, 24 hours
[8] = octanol/ISA water, read-out: logP
[9] = pH 7.4, pH 7.4, octanol/ISA water, read-out: Log D (7.4)

| IP (isoelectric point) [1] | logP [1, 8] | logD [1, 9] | IC50 [2] [nM] | solubility [4] [mM] | Molecule | patient population with severity of the disease reduced by at least 75% (PASI75) (IL-17A) [%] | Papp ([5]; Permeability (Papp ± SE)) [×10⁻⁶ cm/s] | Papp ([5]; Permeability (Papp)) [×10⁻⁶ cm/s] | other results |
| --- | --- | --- | --- | --- | --- | --- | --- | --- | --- |
| 3.55 | 1.89 | -3.79 | < 400 | ≥ 0.05 | CC[C@H](C)[C@H](NC(=O)[C@H](Cc1c[nH]c2ccccc12)NC(=O)[C@H](CCC(=O)O)NC(=O)[C@H](Cc1ccc(O)cc1)NC(=O)[C@H](CC(C)C)NC(=O)[C@H](CC(=O)O)NC(=O)[C@H](C)NC(=O)[C@@H]1CCCN1C(=O)[C@@H](NC(=O)[C@@H](NC(=O)[C@@H](NC(=O)[C@H](CCSC)NC(=O)[C@@H](NC(C)=O)C(C)C)C(C)C)[C@@H](C)O)[C@@H](C)CC)C(=O)N[C@@H](CCC(=O)O)C(=O)N[C@@H](CCC(=O)O)C(N)=O [SEQ ID NO: 18] (Ac-VMVTIPADLYEWIEE-NH2) | – | – | – | secretion of IL-6 [3]: significantly reduce; secretion of IL-17A [3]: significantly reduce; secretion of IL-23 [3]: significantly reduce; secretion of MMP3 [3]: significantly reduce; cell viability (human TH17 cells): did not impair cell viability |
| – | – | – | – | – | secukinumab | 80 | – | – | – |
| – | – | – | – | – | ixekizumab | 80 | – | – | – |
| 5.14 | 0.99 | -0.56 | < 200 | > 10 | CC[C@H](C)[C@H](NC(=O)[C@H](Cc1c[nH]c2ccccc12)NC(=O)[C@H](CC(=O)O)NC(=O)[C@H](Cc1c[nH]c2ccccc12)NC(=O)[C@H](CC(C)C)NC(=O)[C@H](CC(=O)O)NC(=O)[C@H](C)NC(=O)[C@@H]1CCCN1C(=O)[C@@H](NC(=O)[C@@H](NC(=O)[C@@H](NC(=O)[C@H](Cc1c[nH]cn1)NC(=O)[C@@H](NC(C)=O)C(C)C)C(C)C)[C@@H](C)O)[C@@H](C)CC)C(=O)N[C@@H](CC(N)=O)C(=O)N[C@@H](CCCCN)C(N)=O [SEQ ID NO: 2] (Ac-VHVTIPADLWDWINK-NH2) | – | 28.8 | 28.9 | Permeability (Papp ± SE) [6]: 28.86; permeability compared to high permeability standard Rhodamine B (in words) [6]: good permeability; affinity for mouse IL-17A relative to SEQ ID NO: 1 (mouse IL-17A; SPR): 28 fold; Kd (mouse IL-17A; immobilized mIL-17A, 62.5 to 1000 nM peptide, read-out: Kdeq (SPR)): 130 nM; expression of the measured inflammatory cytokines (IL-8, IL-6, TNF-α) [7]: does not change the expression; also recorded: does not show any effect |

| Molecule | IP (isoelectric point) [1] | logP [1, 8] | logD [1, 9] | IC50 [2] [nM] | solubility [4] [mM] | patient population with severity of the disease reduced by at least 75% (PASI75) (IL-17A) [%] | Papp ([5]; Permeability (Papp ± SE)) [×10⁻⁶ cm/s] | Papp ([5]; Permeability (Papp)) [×10⁻⁶ cm/s] | other results |
| --- | --- | --- | --- | --- | --- | --- | --- | --- | --- |
| CC[C@H](C)[C@H](NC(C)=O)C(=O)N[C@@H](Cc1c[nH]cn1)C(=O)N[C@H](C(=O)N[C@H](C(=O)N[C@H](C(=O)N1CCC[C@H]1C(=O)N[C@@H](C)C(=O)N[C@@H](CC(=O)O)C(=O)N[C@@H](CC(C)C)C(=O)N[C@@H](Cc1c[nH]c2ccccc12)C(=O)N[C@@H](CC(=O)O)C(=O)N[C@@H](Cc1c[nH]c2ccccc12)C(=O)N[C@H](C(=O)N[C@@H](CC(N)=O)C(=O)N[C@@H](CCCCN)C(N)=O)[C@@H](C)CC)[C@@H](C)CC)[C@@H](C)O)C(C)C [SEQ ID NO: 1, reference compound] (Ac-IHVTIPADLWDWINK-NH2) | – | – | – | – | > 10 | – | 19.3 | 19.3 | logP ([1]; logP): -5.98; logD ([1]; pH 7.4, Log D (7.4)): -3.68; Kd (mouse IL-17A): 3700 nM |

From patent US11236129B2, “IL-17A binding peptides and medical uses thereof” (Dompe' Farmaceutici S.P.A., priority 2018, dated 2022)
